{
  "source": "patent US20250188404A1",
  "about": "“CULTURE CAPSULE AND METHOD FOR RES[…] IN VIABLE BUT NON-CULTURABLE (VBNC) STATE” (Innovation Center of Yangtze River Delta, ZJU, priority 2023, published 2025)",
  "test_system": "Salmonella ATCC14028 in a special dormant state",
  "assay": "Resuscitation (\"awakening\") of VBNC Salmonella by nutrient added alone, pour-plate colony growth",
  "format": "cell-based",
  "details": "nutrient not encapsulated, more than 3 g egg yolk lecithin or more than 0.22 g cholesterol per 20 mL bacterial solution, static incubation 1 d to 7 d",
  "method": "In the examples of the present disclosure, induced preparation of Salmonella ATCC14028 in a special dormant state: single colonies of Salmonella ATCC14028 are inoculated in a liquid medium and cultivated at 37° C. and 180 rpm to a late logarithmic stage; a resulting bacterial solution is centrifuged at 6,000 rpm for 10 min, and a resulting supernatant is discarded; a resulting precipitate is washed twice with phosphate buffered saline (PBS) and then re-dissolved with PBS for later use, and a resulting bacterial solution is serially diluted to a concentration of 1*10^8 CFU/mL; 18 mL of PBS is added to a 50 mL centrifuge tube, the centrifuge tube is heated in a 60±2° C. water bath, and after the temperature in the centrifuge tube reaches 60±2° C., 2 mL of a 1*10^8 CFU/mL bacterial solution is added to the centrifuge tube; a diluted bacterial solution is magnetically stirred and heated for 20 min, and then immediately taken out and placed in ice for later use; a cooled bacterial solution is centrifuged at 7,000 rpm for 10 min, a resulting supernatant is discarded, and PBS is added to 20 mL for re-dissolution; and the treated bacterial solution is subjected to staining with a Live/Dead BacLight kit, and then the number of viable bacteria in the treated bacterial solution is detected by flow cytometry. […]",
  "data": [
    {"smiles": "CC(C)CCC[C@@H](C)[C@H]1CC[C@H]2[C@@H]3CC=C4C[C@@H](O)CC[C@]4(C)[C@H]3CC[C@]12C", "note": "[cholesterol]", "values": [
      {"measurement": "\"awakening\" of bacteria in a special dormant state (growth of colonies)", "result": "can “awaken” bacteria in a special dormant state"}
    ]}
  ]
}
